Data on eight molecules can be found in publication PMC9863027, “Bioactive Alpha-Pyrone and Phenolic Glucosides from the Marine-Derived Metarhizium sp. P2100” (Journal of Fungi, 2022).

Read-outs that look alike come from different tables or passages of the source.

For data set [1], the system named is NO production in mouse macrophage. As to the kind of experiment: NO production inhibitory activity in LPS-stimulated mouse macrophage (Griess reaction). It counts as cell-based. Particulars: concentration of 50 μM; LPS 1 μg/mL; mean ± SD. As to the method:
The bioassay for NO production inhibitory activity was conducted as described by Xia. The mouse macrophage was seeded in 96-well plates. In each well, lipopolysaccharide (LPS) (1 μg/mL) was added after treating it with or without the tested compound for 24 h. The NO production in the supernatant was detected by the Griess reaction. The absorbance at 540 nm was measured with a microplate reader. The NO concentration and the inhibitory rate were calculated through a calibration curve. Dexamethasone was used as the positive control. Experiments were operated in triplicate, and the data were described as the mean ± SD of three independent experiments.

The target in data set [2] is protein tyrosine phosphatase 1B (PTP1B). Particulars: read-out: IC50 against PTP1B, cited from earlier work.
Data set [3] concerns HEp-2 cells. Details: method as in earlier work. Particulars: read-out: IC50 cytotoxicity against HEp-2; cited from earlier work.
For data set [4], the system named is HepG2 cells. The arrangement: method as in earlier work. Particulars: read-out: IC50 cytotoxicity against HepG2; cited from earlier work.
In data set [5] the target is T1, α-amylase (Sus scrofa, UniProt P00690).
T1 sequence (P00690 16-511): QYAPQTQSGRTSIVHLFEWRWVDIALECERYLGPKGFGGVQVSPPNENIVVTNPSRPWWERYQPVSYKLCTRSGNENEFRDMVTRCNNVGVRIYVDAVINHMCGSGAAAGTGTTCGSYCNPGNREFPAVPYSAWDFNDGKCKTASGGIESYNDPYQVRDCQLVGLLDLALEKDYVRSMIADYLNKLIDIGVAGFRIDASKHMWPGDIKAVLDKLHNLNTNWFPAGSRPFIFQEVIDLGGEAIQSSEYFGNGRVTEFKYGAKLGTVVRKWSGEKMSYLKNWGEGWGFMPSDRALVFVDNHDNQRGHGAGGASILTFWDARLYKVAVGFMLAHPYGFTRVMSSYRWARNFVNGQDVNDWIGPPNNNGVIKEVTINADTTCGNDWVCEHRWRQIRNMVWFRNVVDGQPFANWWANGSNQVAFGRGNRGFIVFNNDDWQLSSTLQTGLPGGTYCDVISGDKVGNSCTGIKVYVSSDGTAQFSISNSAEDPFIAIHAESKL
As to the kind of experiment: α-amylase inhibition activity (starch substrate, dinitrosalicylic acid reagent). It counts as biochemical. Particulars: read-out: IC50 against α-amylase. As for the experimental part: The α-amylase inhibition activity was measured by Milella with minor modifications. Tested compounds and 1-Deoxynojirimycin (1-DNJ) were dissolved in methanol at different concentrations. A substrate solution was prepared with 0.25% starch dissolved in 20 mM phosphate buffer solution (PBS). The enzyme (10 units/mL of α-amylase in PBS, 25 µL) and sample solutions (25 µL) were mixed in Eppendorf vials, and the mixtures were incubated at 37 °C for 10 min. Then, 25 µL of substrate solution was added to each tube, and the reaction mixture was incubated at 37 °C for 10 min. The reaction was terminated by adding 150 µL of dinitrosalicylic acid color reagent. Subsequently, the test tubes were heated for 5 min at 100 °C. After cooling at room temperature, the absorbance was measured at 540 nm. The absorbance of the blank (enzyme solution was added during the boiling) and negative controls (methanol) were recorded. Analyses were performed in triplicate, and the final sample absorbance was obtained by subtracting its corresponding blank reading. The inhibitory activity (%) was calculated as follows: % inhibition=(1−A540 sample/A540 negative control) × 100%
The half-maximal inhibitory concentration (IC50) values were calculated according to the inhibition curve and the data were shown in the layout of mean ± SEM by GraphPad Prism 6.0 (GraphPad Software, Inc., La Jolla, CA, USA).

In the case of `CCCCC(OC1OC(CO)C(OC)C(O)C1O)c1cc(OC)cc(=O)o1` [Compound 2, 7(R)-(4′-methoxy-β-D-glucosyl)-4-methoxy-6-pentyl-2-pyrone], the “NO production inhibition ratio (%)” value in data set [1] was found to be 62.30 ± 1.46%. Turning to `C[C@@H]1C[C@H]2[C@@H]3CCC4=CC(=O)C=C[C@]4(C)[C@@]3(F)[C@@H](O)C[C@]2(C)[C@@]1(O)C(=O)CO` [Dexamethasone, reference compound], in data set [1], the “NO production inhibition ratio (%)” value came out at 63.88 ± 2.07%. In general, IC50 refers to the concentration that inhibits the measured activity by half. As for `CCCCCCCCCCCCCCCc1cc(O[C@@H]2O[C@H](CO)[C@@H](O)[C@H](O)[C@H]2O)cc(O)c1C(=O)Oc1cc(C)c(C(=O)O)c(O)c1` [Aquastatin A], the IC50 in data set [2] (competitive manner) is 0.19 µM. On to `COc1c(O[C@@H]2O[C@H](CO[C@@H]3OC[C@H](O)[C@H](O)[C@H]3O)[C@@H](O)[C@H](O)[C@H]2O)cc(OC)c2c(=O)c3ccccc3oc12` [3-O-(6-O-α-L-arabinopyranosyl)-β-D-gluco-pyranosyl-1,4-dimethoxyxanthone], for which the values for the IC50 in data set [3] and in data set [4] were 9 µM and 16 µM, respectively. As to “4-(4′-methoxy-β-D-glucosyl)-6-pentyl-2-pyrone [Compound 1]”, the “NO production inhibition ratio (%)” value in data set [1] worked out at 53.85 ± 2.32%. For the same molecule, in data set [5], the IC50 came to 128 µM.

Consider `COc1cc(C(C)=O)ccc1O[C@@H]1O[C@H](CO)[C@@H](OC)[C@H](O)[C@H]1O` [Compound 4, Lecaniside D], for which the “NO production inhibition ratio (%)” value in data set [1] amounted to 68.10 ± 2.07%. Lecaniside C: in data set [2], the IC50 was greater than 50 µM. On to `CCCCC(OC1OC(CO)C(OC)C(O)C1O)c1cc(OC)cc(=O)o1` [Compound 3, 7(S)-(4′-methoxy-β-D-glucosyl)-4-methoxy-6-pentyl-2-pyrone], for which, in data set [1], the “NO production inhibition ratio (%)” value stood at 68.44 ± 3.75%.
